Structures are written as SMILES.

This test addresses T1, human TLR7 (Homo sapiens, UniProt Q9NYK1).
T1 construct: host or cells: HEK-Blue cells
T1 sequence (Q9NYK1 27-1049): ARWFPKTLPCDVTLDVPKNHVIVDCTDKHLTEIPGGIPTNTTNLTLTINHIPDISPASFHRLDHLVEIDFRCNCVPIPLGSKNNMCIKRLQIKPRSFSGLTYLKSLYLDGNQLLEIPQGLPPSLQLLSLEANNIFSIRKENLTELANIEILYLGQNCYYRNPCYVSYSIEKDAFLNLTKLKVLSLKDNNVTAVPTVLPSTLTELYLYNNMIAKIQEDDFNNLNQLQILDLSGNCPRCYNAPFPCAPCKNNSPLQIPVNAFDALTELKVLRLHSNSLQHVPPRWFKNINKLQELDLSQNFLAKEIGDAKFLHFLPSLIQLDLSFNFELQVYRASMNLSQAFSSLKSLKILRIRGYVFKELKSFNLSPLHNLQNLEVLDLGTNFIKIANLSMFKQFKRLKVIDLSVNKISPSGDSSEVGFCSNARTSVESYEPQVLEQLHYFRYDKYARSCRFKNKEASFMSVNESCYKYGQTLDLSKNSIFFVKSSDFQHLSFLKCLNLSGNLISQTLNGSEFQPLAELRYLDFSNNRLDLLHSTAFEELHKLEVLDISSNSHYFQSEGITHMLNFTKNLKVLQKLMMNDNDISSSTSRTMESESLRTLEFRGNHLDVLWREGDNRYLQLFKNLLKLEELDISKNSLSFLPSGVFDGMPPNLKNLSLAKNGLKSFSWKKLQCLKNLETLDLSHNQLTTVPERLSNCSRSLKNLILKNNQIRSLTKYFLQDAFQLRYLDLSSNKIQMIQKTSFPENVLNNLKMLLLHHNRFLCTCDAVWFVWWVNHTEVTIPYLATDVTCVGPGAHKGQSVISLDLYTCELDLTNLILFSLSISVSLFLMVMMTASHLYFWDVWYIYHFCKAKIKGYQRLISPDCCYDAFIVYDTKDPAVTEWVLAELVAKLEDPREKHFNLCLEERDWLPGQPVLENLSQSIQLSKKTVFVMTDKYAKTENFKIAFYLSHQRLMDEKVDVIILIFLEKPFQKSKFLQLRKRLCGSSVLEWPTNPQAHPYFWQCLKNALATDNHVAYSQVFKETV
Briefly: TLR7 inhibition reporter assay (HEK-Blue SEAP). It counts as cell-based. Particulars: HEK-Blue cells overexpressing human TLR7, gardiquimod 7.5 μM, 22 hour incubation. The method in brief: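 SEAP readout via HEK-Blue Detection medium after 22 h at 37 °C, 5% CO2 defines inhibition, normalized between agonist-plus-DMSO wells and a reference inhibitor. Compound dose range 0.05 nM–50 μM; TLR7 cells at 15,000/well (gardiquimod), TLR8 at 20,000/well (R848).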
(In a reporter assay the amount or activity of a reporter protein is the signal.)
`COc1cc(-c2cc3[nH]c(=O)n([C@@H]4CCCN(C5CCOCC5)C4)c3cc2C)cn2ncnc12` [Example 70, (R)-5-(8-methoxy-[1,2,4]triazolo[1,5-a]pyridin-6-yl)-6-methyl-1-(1-(tetrahydro-2H-pyran-4-yl)piperidin-3-yl)-1,3-dihydro-2H-benzo[d]imidazol-2-one]: it took 163 nM to reach half-maximal inhibition (IC50).
As for `COc1cc(-c2cc3[nH]c(=O)n([C@@H]4CCCN(C(C)C)C4)c3cc2C)cn2ncnc12` [Example 53, (R)-1-(1-isopropylpiperidin-3-yl)-5-(8-methoxy-[1,2,4]triazolo[1,5-a]pyridin-6-yl)-6-methyl-1,3-dihydro-2H-benzo[d]imidazol-2-one], the IC50 (commonly the concentration at which inhibition is half-maximal) worked out at 33 nM.
In turn, `Cc1cc2c(cc1-c1cc(C)c3ncnn3c1)[nH]c(=O)n2C1CCN(CC(=O)N(C)C)CC1` [Example 89, N,N-dimethyl-2-(4-(6-methyl-5-(8-methyl-[1,2,4]triazolo[1,5-a]pyridin-6-yl)-2-oxo-2,3-dihydro-1H-benzo[d]imidazol-1-yl)piperidin-1-yl)acetamide] returned an IC50 of 111 nM.
For `Cc1cc2c(cc1-c1cc(C)c3ncnn3c1)[nH]c(=O)n2[C@H]1CCCN(CC(=O)N(C)C)C1` [Example 93, (S)—N,N-dimethyl-2-(3-(6-methyl-5-(8-methyl-[1,2,4]triazolo[1,5-a]pyridin-6-yl)-2-oxo-2,3-dihydro-1H-benzo[d]imidazol-1-yl)piperidin-1-yl)acetamide] the value was 565 nM; for `COc1cc(-c2cc3[nH]c(=O)n([C@@H]4CCCN(C5CCC5)C4)c3cc2C)cn2ncnc12` [Example 69, (R)-1-(1-cyclobutylpiperidin-3-yl)-5-(8-methoxy-[1,2,4]triazolo[1,5-a]pyridin-6-yl)-6-methyl-1,3-dihydro-2H-benzo[d]imidazol-2-one], 96.9 nM.
For `CCCN1CCC(n2c(=O)[nH]c3cc(-c4cc(OC)c5ncnn5c4)ccc32)CC1` [Example 76, 5-(8-methoxy-[1,2,4]triazolo[1,5-a]pyridin-6-yl)-1-(1-propylpiperidin-4-yl)-1,3-dihydro-2H-benzo[d]imidazol-2-one] the value was 1480 nM; for `CNC(=O)CN1CCC(n2c(=O)[nH]c3cc(-c4cc(C)c5ncnn5c4)c(C)cc32)CC1` [Example 88, N-methyl-2-(4-(6-methyl-5-(8-methyl-[1,2,4]triazolo[1,5-a]pyridin-6-yl)-2-oxo-2,3-dihydro-1H-benzo[d]imidazol-1-yl)piperidin-1-yl)acetamide], 333 nM.
In the case of `Cc1cc2c(cc1-c1cc(C)c3ncnn3c1)[nH]c(=O)n2[C@@H]1CCCN(CC(C)C)C1` [Example 40, (R)-1-(1-isobutylpiperidin-3-yl)-6-methyl-5-(8-methyl-[1,2,4]triazolo[1,5-a]pyridin-6-yl)-1,3-dihydro-2H-benzo[d]imidazol-2-one], the midpoint of inhibition, the IC50, lay at 14.8 nM.
For `Cc1cc2c(cc1-c1cc(C)c3ncnn3c1)[nH]c(=O)n2[C@H]1CC[C@@H](NCC(C)(C)C)CC1` [Example 32, 6-methyl-5-(8-methyl-[1,2,4]triazolo[1,5-a]pyridin-6-yl)-1-((1s,4s)-4-(neopentylamino)cyclohexyl)-1,3-dihydro-2H-benzo[d]imidazol-2-one] the value was 20.4 nM; for `COc1cc(-c2cc3[nH]c(=O)n([C@@H]4CCCN(CC(C)C)C4)c3cc2C)cn2ncnc12` [Example 56, (R)-1-(1-isobutylpiperidin-3-yl)-5-(8-methoxy-[1,2,4]triazolo[1,5-a]pyridin-6-yl)-6-methyl-1,3-dihydro-2H-benzo[d]imidazol-2-one], 5.32 nM; for `COc1cc(-c2ccc3c(c2)[nH]c(=O)n3C2CCN(CC3CCOC3)CC2)cn2ncnc12` (centres unmarked) [Example 82, 5-(8-methoxy-[1,2,4]triazolo[1,5-a]pyridin-6-yl)-1-(1-((tetrahydrofuran-3-yl)methyl)piperidin-4-yl)-1,3-dihydro-2H-benzo[d]imidazol-2-one], 1300 nM.

The values are drawn from patent publication US12187723B2 (BRISTOL-MYERS SQUIBB COMPANY, priority 2019, dated 2025).
